Reference: the NIST ThermoML archive (doi:10.1016/j.jct.2017.05.006)

Experiment: osmotic coefficient (dimensionless); mn = molality of the nth substance listed, in mol/kg
Details: 298.15 K, Liquid, isopiestic method

O=[N+]([O-])[O-].O=[N+]([O-])[O-].[Mg+2] [magnesium nitrate] + O
Details | osmotic coefficient
m1 = 0.7578 | 1.015
m1 = 0.855 | 1.032
m1 = 0.9755 | 1.071
m1 = 1.067 | 1.103
m1 = 1.126 | 1.115
m1 = 1.15 | 1.122
m1 = 1.187 | 1.13
m1 = 1.191 | 1.135
m1 = 1.234 | 1.143
m1 = 1.309 | 1.172
m1 = 1.395 | 1.196

O=S(=O)([O-])[O-].[Mg+2] [magnesium sulfate] + O
Details | osmotic coefficient
m1 = 1.562 | 0.586
m1 = 1.585 | 0.593
m1 = 1.607 | 0.595
m1 = 1.643 | 0.601
m1 = 1.7 | 0.609
m1 = 1.742 | 0.617
m1 = 1.803 | 0.625
m1 = 1.884 | 0.641
m1 = 2.007 | 0.665
m1 = 2.132 | 0.692
m1 = 2.243 | 0.714
m1 = 2.385 | 0.746
